Experimental data as given in ChEMBL document CHEMBL2424637, “Nucleophilic substitution reactions of 1,4-naphthoquinone and biologic properties of novel S-, S,S-, N-, and N,S-substituted 1,4-naphthoquinone derivatives” (2013).
≈ marks a conversion by molar mass, not a printed value. Calls of active or inactive are those of the source. The rule behind the calls is not given here.

Experiments:
Format in all cases: functional
Yamadazyma tenuis [1] = experiment: Antifungal activity against Candida tenuis VKM Y-70 at 0.1% after 48 to 72 hrs by agar disk diffusion technique
Aspergillus niger [2] = experiment: Antifungal activity against Aspergillus niger F-1119 after 24 to 72 hrs by serial dilution technique
Mycobacterium [3] = experiment: Antibacterial activity against Mycobacterium luteum B-917 at 0.5% after 24 hrs by agar disk diffusion technique
Staphylococcus aureus [4] = experiment: Antibacterial activity against Staphylococcus aureus 209-P after 24 to 72 hrs by serial dilution technique
Escherichia coli [5] = experiment: Antibacterial activity against Escherichia coli B-906 after 24 to 72 hrs by serial dilution technique
Yamadazyma tenuis [6] = experiment: Antifungal activity against Candida tenuis VKM Y-70 at 0.5% after 48 to 72 hrs by agar disk diffusion technique
Aspergillus niger [7] = experiment: Antifungal activity against Aspergillus niger F-1119 at 0.5% after 48 to 72 hrs by agar disk diffusion technique
Mycobacterium [8] = experiment: Antibacterial activity against Mycobacterium luteum B-917 after 24 to 72 hrs by serial dilution technique
Yamadazyma tenuis [9] = experiment: Antifungal activity against Candida tenuis VKM Y-70 after 24 to 72 hrs by serial dilution technique
Aspergillus niger [10] = experiment: Antifungal activity against Aspergillus niger F-1119 at 0.1% after 48 to 72 hrs by agar disk diffusion technique
Escherichia coli [11] = experiment: Antibacterial activity against Escherichia coli B-906 at 0.5% after 24 hrs by agar disk diffusion technique
Staphylococcus aureus [12] = experiment: Antibacterial activity against Staphylococcus aureus 209-P at 0.1% after 24 hrs by agar disk diffusion technique
Escherichia coli [13] = experiment: Antibacterial activity against Escherichia coli B-906 at 0.1% after 24 hrs by agar disk diffusion technique
Mycobacterium [14] = experiment: Antibacterial activity against Mycobacterium luteum B-917 at 0.1% after 24 hrs by agar disk diffusion technique
Staphylococcus aureus [15] = experiment: Antibacterial activity against Staphylococcus aureus 209-P at 0.5% after 24 hrs by agar disk diffusion technique

Compound	diameter of the inhibition zone (DIZ) (Yamadazyma tenuis [1])	MIC (Aspergillus niger [2])	diameter of the inhibition zone (DIZ) (Mycobacterium [3])	MIC (Staphylococcus aureus [4])	MIC (Escherichia coli [5])	diameter of the inhibition zone (DIZ) (Yamadazyma tenuis [6])	diameter of the inhibition zone (DIZ) (Aspergillus niger [7])	MIC (Mycobacterium [8])	MIC (Yamadazyma tenuis [9])	diameter of the inhibition zone (DIZ) (Aspergillus niger [10])	diameter of the inhibition zone (DIZ) (Escherichia coli [11])	diameter of the inhibition zone (DIZ) (Staphylococcus aureus [12])	diameter of the inhibition zone (DIZ) (Escherichia coli [13])	diameter of the inhibition zone (DIZ) (Mycobacterium [14])	diameter of the inhibition zone (DIZ) (Staphylococcus aureus [15])	inhibition zone (IZ) (Yamadazyma tenuis [1])
CCOC1=C(N(CC)Cc2ccncc2)C(=O)c2ccccc2C1=O	12.4 mm	31.2 mg/L (≈ 92.7 µM)	7.4 mm	62.5 mg/L (≈ 186 µM)	inactive	20 mm	19 mm	125 mg/L (≈ 372 µM)	62.5 mg/L (≈ 186 µM)	8 mm	0 mm	0 mm	0 mm	0 mm	0 mm	–
CCCCOC(=O)CCSC1=C(SCCC(=O)OCCCC)C(=O)c2ccccc2C1=O	0 mm	inactive	0 mm	inactive	inactive	0 mm	6 mm	inactive	inactive	0 mm	0 mm	0 mm	0 mm	0 mm	0 mm	–
O=C1C(Sc2c(Cl)c(Cl)c(Cl)c(Cl)c2Cl)=C(N2CCCC2)C(=O)c2ccccc21	0 mm	inactive	0 mm	inactive	inactive	0 mm	0 mm	inactive	inactive	0 mm	0 mm	0 mm	0 mm	0 mm	0 mm	–
O=C1C(Sc2c(Cl)c(Cl)c(Cl)c(Cl)c2Cl)=C(N2CCCCC2)C(=O)c2ccccc21	0 mm	inactive	0 mm	inactive	inactive	0 mm	0 mm	inactive	inactive	0 mm	0 mm	0 mm	0 mm	0 mm	0 mm	–
O=C1C(Sc2c(Cl)c(Cl)c(Cl)c(Cl)c2Cl)=C(N2CCOCC2)C(=O)c2ccccc21	0 mm	inactive	0 mm	inactive	inactive	0 mm	0 mm	inactive	inactive	0 mm	0 mm	0 mm	0 mm	0 mm	0 mm	–
CSc1ccc(SC2=C(Sc3ccc(SC)cc3)C(=O)c3ccccc3C2=O)cc1	0 mm	500 mg/L (≈ 1070 µM)	11 mm	250 mg/L (≈ 536 µM)	inactive	0 mm	6 mm	125 mg/L (≈ 268 µM)	inactive	0 mm	0 mm	0 mm	0 mm	8.7 mm	8.7 mm	–
CCCCOC(=O)CCSC1=C(Sc2c(Cl)c(Cl)c(Cl)c(Cl)c2Cl)C(=O)c2ccccc2C1=O	0 mm	inactive	0 mm	inactive	inactive	0 mm	6 mm	125 mg/L (≈ 209 µM)	inactive	0 mm	0 mm	0 mm	0 mm	0 mm	0 mm	–
O=C1C(Sc2cc(Cl)ccc2Cl)=C(Sc2cc(Cl)ccc2Cl)C(=O)c2ccccc21	0 mm	inactive	0 mm	inactive	inactive	7 mm	0 mm	inactive	500 mg/L (≈ 976 µM)	0 mm	0 mm	0 mm	0 mm	0 mm	0 mm	–
COC(=O)CCSC1=C(Sc2c(Cl)c(Cl)c(Cl)c(Cl)c2Cl)C(=O)c2ccccc2C1=O	0 mm	inactive	10.7 mm	250 mg/L (≈ 449 µM)	inactive	0 mm	0 mm	15.6 mg/L (≈ 28 µM)	62.5 mg/L (≈ 112 µM)	0 mm	0 mm	0 mm	0 mm	6 mm	0 mm	–
COc1ccc(CSC2=C(SCc3ccc(OC)cc3)C(=O)c3ccccc3C2=O)cc1	7.4 mm	250 mg/L (≈ 540 µM)	7 mm	inactive	inactive	11.7 mm	7.4 mm	inactive	62.5 mg/L (≈ 135 µM)	0 mm	0 mm	0 mm	0 mm	0 mm	0 mm	–
CCCCOC(=O)CCSC1=C(Sc2ccc(O)cc2)C(=O)c2ccccc2C1=O	0 mm	inactive	6 mm	inactive	inactive	0 mm	0 mm	inactive	inactive	0 mm	0 mm	0 mm	0 mm	0 mm	0 mm	–
COC(=O)CCSC1=C(N2CCC3(CC2)OCCO3)C(=O)c2ccccc2C1=O	0 mm	500 mg/L (≈ 1200 µM)	12.6 mm	inactive	inactive	0 mm	8.4 mm	250 mg/L (≈ 599 µM)	inactive	0 mm	0 mm	0 mm	0 mm	0 mm	0 mm	–
CCCCOC(=O)CCSC1=C(N2CCC3(CC2)OCCO3)C(=O)c2ccccc2C1=O	0 mm	62.5 mg/L (≈ 136 µM)	0 mm	inactive	inactive	0 mm	9 mm	125 mg/L (≈ 272 µM)	inactive	7 mm	0 mm	0 mm	0 mm	0 mm	0 mm	–
NYSTATIN	–	–	–	–	–	–	–	–	–	–	–	–	–	–	–	19 mm
CN[C@H](CC(C)C)C(=O)N[C@H]1C(=O)N[C@@H](CC(N)=O)C(=O)N[C@H]2C(=O)N[C@H]3C(=O)N[C@H](C(=O)N[C@H](C(=O)O)c4cc(O)cc(O)c4-c4cc3ccc4O)[C@H](O)c3ccc(c(Cl)c3)Oc3cc2cc(c3O[C@@H]2O[C@H](CO)[C@@H](O)[C@H](O)[C@H]2O[C@H]2C[C@](C)(N)[C@H](O)[C@H](C)O2)Oc2ccc(cc2Cl)[C@H]1O [VANCOMYCIN]	–	–	–	–	–	–	–	–	–	–	–	15 mm	14 mm	18 mm	–	–
